Laboratory results reported in ChEMBL document CHEMBL5344403, “Discovery and evaluation of phenacrylanilide derivatives as novel potential anti-liver fibrosis agents” (Eur J Med Chem, 2022).
Active and inactive are the calls of the source. The rule behind the calls is not given here.

Tests used:
LX-2 [1] = assay: Inhibition of TGF-beta1-induced human LX2 activation at 20 uM pretreated with TGF-beta1 for 1 hr followed by compound addition and measured after 72 hrs by CCK-8 assay relative to control; format: functional
[2] = Antiproliferative activity against human LX2 cells assessed as cell survival rate at 20 uM incubated for 72 hrs by CCK-8 assay; format: toxicity, cell-based; conditions: LX-2 cells, read-out: Activity
LX-2 [3] = assay: Effect on alpha-SMA protein level in TGF-beta1-induced human LX2 cells at 20 uM pretreated with TGF-beta1 for 1 hr followed by compound addition and measured after 24 hrs by Western blot analysis; format: functional, cell-based
LX-2 [4] = assay: Downregulation of fibronectin mRNA expression in TGF-beta1-induced human LX2 cells at 20 uM pretreated with TGF-beta1 for 1 hr followed by compound addition and measured after 24 hrs by qRT-PCR analysis; format: functional, cell-based
LX-2 [5] = assay: Downregulation of alpha-SMA mRNA expression in TGF-beta1-induced human LX2 cells at 20 uM pretreated with TGF-beta1 for 1 hr followed by compound addition and measured after 24 hrs by qRT-PCR analysis; format: functional, cell-based
LX-2 [6] = assay: Effect on fibronectin protein level in TGF-beta1-induced human LX2 cells at 20 uM pretreated with TGF-beta1 for 1 hr followed by compound addition and measured after 24 hrs by Western blot analysis; format: functional, cell-based
[7] = Antiproliferative activity against human LO2 cells assessed as inhibition of cell growth incubated for 72 hrs by CCK-8 assay; format: toxicity, cell-based; conditions: LO2 (L02) cells
LX-2 [8] = assay: Antifibrotic activity against TGF-beta1 induced human LX2 cells assessed as reduction of fibronectin expression at 20 uM pretreated with TGF-beta1 for 1 hr followed by compound addition and measured after 24 hrs by Western blot analysis; format: functional, cell-based
LX-2 [9] = assay: Antifibrotic activity against TGF-beta1 induced human LX2 cells assessed as reduction of alpha-SMA expression at 20 uM pretreated with TGF-beta1 for 1 hr followed by compound addition and measured after 24 hrs by Western blot analysis; format: functional, cell-based
[10] = Toxicity in CCL4-induced po dosed C57BL/6J mouse assessed as inflammatory cell infiltration in spleen at 15 to 30 mg/kg, po by H and E staining based analysis; format: organism-based; conditions: in vivo, dose 15-30 mg/kg
Mus musculus [11] = assay: Antifibrotic activity against CCL4-induced C57BL/6J mouse hepatic fibrosis model assessed as reduction in F4/80+CD11b+ in macrophage at 30 mg/kg, po measured for 3 weeks by flow cytometry analysis relative to control; format: functional; parameters: scale not given: the % may be the effect or the level left
Mus musculus [12] = assay: Antifibrotic activity against CCL4-induced C57BL/6J mouse hepatic fibrosis model assessed as reduction in CD11b/Gr-1 in MDSC cells at 30 mg/kg, po measured for 3 weeks by flow cytometry analysis relative to control; format: functional; parameters: scale not given: the % may be the effect or the level left
Mus musculus [13] = assay: Antifibrotic activity against CCL4-induced C57BL/6J mouse hepatic fibrosis model assessed as reduction in CD69/CD8 in […] cell cells at 30 mg/kg, po measured for 3 weeks by flow cytometry analysis relative to control; format: functional; parameters: scale not given: the % may be the effect or the level left
[14] = Toxicity in CCL4-induced po dosed C57BL/6J mouse assessed as inflammatory cell infiltration in lung at 15 to 30 mg/kg, po by H and E staining based analysis; format: organism-based; conditions: in vivo, dose 15-30 mg/kg
Mus musculus [15] = assay: Antifibrotic activity against CCL4-induced C57BL/6J mouse hepatic fibrosis model assessed as reduction in CD69/CD4 in Th1 cell cells at 30 mg/kg, po measured for 3 weeks by flow cytometry analysis relative to control; format: functional; parameters: scale not given: the % may be the effect or the level left
[16] = Toxicity in CCL4-induced po dosed C57BL/6J mouse assessed as inflammatory cell infiltration in heart at 15 to 30 mg/kg, po by H and E staining based analysis; format: organism-based; conditions: in vivo, dose 15-30 mg/kg
LX-2 [17] = assay: […] of alpha-SMA mRNA expression in TGF-beta1-induced human LX2 cells at 20 uM pretreated with TGF-beta1 for 1 hr followed by compound addition and measured after 24 hrs by qRT-PCR analysis; format: functional, cell-based

Row | Structure (SMILES) | inhibition at 20 µM (LX-2 [1]) [%] | viability at 72 h, 20 µM [2] [%] | further results
1 | COc1ccc(/C=C/C(=O)Nc2cccc(C(=O)N3CCCCC3)c2)cc1OC | 17.7 | 68.8 | 
2 | COc1ccccc1/C=C/C(=O)Nc1ccc(C(=O)NC2CCCC2)cc1 | 70.3 | 70.8 | Activity (LX-2 [3]): inactive; Activity (LX-2 [4]): Active; Activity (LX-2 [5]): Active; Activity (LX-2 [6]): inactive
3 | COc1ccccc1/C=C/C(=O)Nc1cccc(C(=O)NC2CCCC2)c1 | 17.3 | 66 | 
4 | COc1cccc(/C=C/C(=O)Nc2ccc(C(=O)NC3CCCC3)cc2)c1 | 19 | 70.8 | 
5 | COc1cccc(/C=C/C(=O)Nc2cccc(C(=O)NC3CCCC3)c2)c1 | 25.3 | 56 | 
6 | COc1cccc(/C=C/C(=O)Nc2ccc(C(=O)NC3CCCC3)cc2)c1OC | 17.3 | 77 | 
7 | COc1ccc(/C=C/C(=O)Nc2ccccc2C(=O)NC2CCCCC2)cc1OC | 20 | 45.3 | 
8 | COc1ccc(/C=C/C(=O)Nc2ccccc2C(=O)NC2CCCC2)cc1OC | 27 | 88 | 
9 | COc1ccc(/C=C/C(=O)Nc2cccc(C(=O)NC3CC3)c2)cc1OC | 30 | 65.3 | 
10 | CNC(=O)c1cccc(NC(=O)/C=C/c2ccc(OC)c(OC)c2)c1 | 28.5 | 79.7 | 
11 | COc1ccc(/C=C/C(=O)Nc2ccc(C(=O)O)cc2)cc1OC | 31 | 81.5 | 
12 | COc1ccc(/C=C/C(=O)Nc2ccc(C(=O)NC3CCNC3)nc2)cc1OC (stereo not given) | 19.5 | 76.5 | 
13 | COc1ccc(/C=C/C(=O)Nc2ccccc2C(=O)NC2CCC2)cc1OC | 19 | 71 | 
14 | CNC(=O)c1ccccc1NC(=O)/C=C/c1ccc(OC)c(OC)c1 | 13 | 67 | 
15 | COc1ccc(/C=C/C(=O)Nc2cccc(C(=O)NC3CCCC3)c2)cc1OC | 53.8 | 44.3 | IC50 at 72 h [7]: 8.4 µM; Activity (LX-2 [8]): Active; Activity (LX-2 [9]): Active
16 | COc1ccc(/C=C/C(=O)Nc2ccc(C(=O)NC3CCCCC3)cc2)cc1OC | 14 | 81.3 | 
17 | COc1ccc(OC)c(/C=C/C(=O)Nc2ccc(C(=O)NC3CCCC3)cc2)c1 | 26.3 | 63 | 
18 | O=C(/C=C/c1ccc2c(c1)OCO2)Nc1ccc(C(=O)NC2CCCC2)cc1 | 22 | 78 | 
19 | COc1ccc(CCC(=O)Nc2cccc(C(=O)NC3CCCC3)c2)cc1OC | 13.8 | 71.7 | 
20 | COc1ccc(/C=C/C(=O)Nc2cccc(C(=O)NC3CCCCC3)c2)cc1OC | 49.6 | 39.8 | 

Row | Structure (SMILES) | inhibition at 20 µM (LX-2 [1]) [%] | viability at 72 h, 20 µM [2] [%] | further results
21 | COc1ccc(/C=C/C(=O)Nc2cccc(C(=O)NC3CCC3)c2)cc1OC | 31.7 | 60 | 
22 | COc1ccc(/C=C/C(=O)Nc2ccc(C(=O)NC3CC3)cc2)cc1OC | 24.5 | 74.3 | 
23 | COc1ccc(/C=C/C(=O)Nc2ccc(C(=O)N3CCCCC3)cc2)cc1OC | 29.5 | 74 | 
24 | COc1ccc(/C=C/C(=O)Nc2ccccc2C(=O)NC2CC2)cc1OC | 1.5 | 71.5 | 
25 | COc1ccc(/C=C/C(=O)Nc2ccc(C(=O)NC3CCCC3)cc2)cc1OC | 48.3 | 46 | IC50 at 72 h [7]: 13.3 µM; Activity (LX-2 [8]): Active; Activity (LX-2 [9]): Active
26 | COc1ccc(/C=C/C(=O)Nc2ccc(C(=O)NC3CCCC3)cc2)cc1 | 32 | 50.3 | 
27 | COc1ccc(/C=C/C(=O)Nc2ccccc2C(=O)O)cc1OC [TRANILAST] | 17.5 | 80 | Activity [10]: Non-Toxic; Activity (Mus musculus [11]): 5.09%; Activity (Mus musculus [12]): 2.87%; Activity (Mus musculus [13]): 1.92%; Activity [14]: Non-Toxic; Activity (Mus musculus [15]): 1.66%; IC50 at 72 h [7]: 82.3 µM; Activity [16]: Non-Toxic
28 | COc1ccc(/C=C/C(=O)Nc2ccc(C(=O)NC3CCC3)cc2)cc1OC | 27 | 68.3 | 
29 | COc1ccc(/C=C/C(=O)Nc2ccccc2C(=O)N2CCCCC2)cc1OC | 13 | 88.7 | 
30 | COc1ccc(CCC(=O)Nc2ccc(C(=O)NC3CCCC3)cc2)cc1OC | 3 | 71.7 | 
31 | COc1cc(/C=C/C(=O)Nc2ccc(C(=O)NC3CCCC3)cc2)cc(OC)c1 | 36.7 | 69.7 | IC50 at 72 h [7]: 17.3 µM; Activity (LX-2 [8]): Active; Activity (LX-2 [9]): Active
32 | COc1ccc(/C=C/C(=O)Nc2ccc(C(=O)NC3CCCC3)nc2)cc1OC | 41 | 64.5 | Activity (LX-2 [17]): Active
33 | COc1ccc(/C=C/C(=O)Nc2ccc(C(=O)O)nc2)cc1OC | 14 | 98 | 
34 | COc1ccc(/C=C/C(=O)Nc2cccc(C(=O)O)c2)cc1OC | 26 | 79.3 | 
35 | COc1ccc(/C=C/C(=O)Nc2ccc(C(=O)NC3CCCC3)cc2)cc1O | 29.5 | 66.3 | 
36 | CNC(=O)c1ccc(NC(=O)/C=C/c2ccc(OC)c(OC)c2)cc1 | 24 | 79.5 | 
37 | O=C(/C=C/c1ccc2c(c1)OCCO2)Nc1ccc(C(=O)NC2CCCC2)cc1 | 18 | 69.3 | 
38 | COc1ccc(/C=C/C(=O)Nc2ccc(C(=O)NC3CCNC3)cc2)cc1OC (stereo not given) | 17 | 80.3 | 
39 | Cc1cc(C)cc(/C=C/C(=O)Nc2ccc(C(=O)NC3CCCC3)cc2)c1 | 3 | 80.5 | 
